In patent US20120220603A1, “SUBSTITUTED HETEROCYCLIC DERIVATIVES FOR THE TREATMENT OF PAIN AND EPILEPSY” (ZALICUS PHARMACEUTICALS LTD., priority 2009, published 2012):

What was measured:
[1] = tested on: seizures induced by 6 Hz corneal stimulation in CF1 mice; assay: 6 Hz psychomotor seizure model of partial epilepsy; format: in vivo, mouse; set-up: Epilepsy 6 Hz (% protected): concentration or dose not given beside the values; settings: 32 mA; for ED50: Mus musculus
Protocol: Compounds were evaluated for the protection against seizures induced by a 6 Hz, 0.2 ms rectangular pulse width of 3 s duration, at a stimulus intensity of 32 mA (CC97) applied to the cornea of male CF1 mice (20-30 g) according to procedures described by Barton et al, “Pharmacological Characterization of the 6 Hz Psychomotor Seizure Model of Partial Epilepsy,” Epilepsy Res. 47(3):217-27 (2001). Seizures are characterised by the expression of one or more of the following behaviours: stun, forelimb clonus, twitching of the vibrissae and Straub-tail immediately following electrical stimulation.

[2] = tested on: mice on rotarod; assay: Mouse rotarod assay (minimal muscular or neurological impairment); format: in vivo
Protocol: To assess a compound's undesirable side effects (toxicity), animals were monitored for overt signs of impaired neurological or muscular function. In mice, the rotarod procedure (Dunham and Miya, J. Am. Pharmacol. Assoc. 46:208-209 (1957)) is used to disclose minimal muscular or neurological impairment (MMI). When a mouse is placed on a rod that rotates at a speed of 6 rpm, the animal can maintain its equilibrium for long periods of time. The animal is considered toxic if it falls off this rotating rod three times during a 1-min period.

[3] = molecular target: T1, human Nav1.5 channel (Homo sapiens, UniProt Q14524); assay: NaV1.5 sodium channel screening assay, PatchXpress automated electrophysiology, cardiac action potential waveform 1 Hz; format: cell-based; settings: cardiac action potential waveform at 1 Hz; HEK cells; read-out: HNAv 1.5 Cardiac AP 1 Hz IC50
T1 construct: expressed in transfected cells; host or cells: HEK cells
T1 sequence (Q14524 whole entry): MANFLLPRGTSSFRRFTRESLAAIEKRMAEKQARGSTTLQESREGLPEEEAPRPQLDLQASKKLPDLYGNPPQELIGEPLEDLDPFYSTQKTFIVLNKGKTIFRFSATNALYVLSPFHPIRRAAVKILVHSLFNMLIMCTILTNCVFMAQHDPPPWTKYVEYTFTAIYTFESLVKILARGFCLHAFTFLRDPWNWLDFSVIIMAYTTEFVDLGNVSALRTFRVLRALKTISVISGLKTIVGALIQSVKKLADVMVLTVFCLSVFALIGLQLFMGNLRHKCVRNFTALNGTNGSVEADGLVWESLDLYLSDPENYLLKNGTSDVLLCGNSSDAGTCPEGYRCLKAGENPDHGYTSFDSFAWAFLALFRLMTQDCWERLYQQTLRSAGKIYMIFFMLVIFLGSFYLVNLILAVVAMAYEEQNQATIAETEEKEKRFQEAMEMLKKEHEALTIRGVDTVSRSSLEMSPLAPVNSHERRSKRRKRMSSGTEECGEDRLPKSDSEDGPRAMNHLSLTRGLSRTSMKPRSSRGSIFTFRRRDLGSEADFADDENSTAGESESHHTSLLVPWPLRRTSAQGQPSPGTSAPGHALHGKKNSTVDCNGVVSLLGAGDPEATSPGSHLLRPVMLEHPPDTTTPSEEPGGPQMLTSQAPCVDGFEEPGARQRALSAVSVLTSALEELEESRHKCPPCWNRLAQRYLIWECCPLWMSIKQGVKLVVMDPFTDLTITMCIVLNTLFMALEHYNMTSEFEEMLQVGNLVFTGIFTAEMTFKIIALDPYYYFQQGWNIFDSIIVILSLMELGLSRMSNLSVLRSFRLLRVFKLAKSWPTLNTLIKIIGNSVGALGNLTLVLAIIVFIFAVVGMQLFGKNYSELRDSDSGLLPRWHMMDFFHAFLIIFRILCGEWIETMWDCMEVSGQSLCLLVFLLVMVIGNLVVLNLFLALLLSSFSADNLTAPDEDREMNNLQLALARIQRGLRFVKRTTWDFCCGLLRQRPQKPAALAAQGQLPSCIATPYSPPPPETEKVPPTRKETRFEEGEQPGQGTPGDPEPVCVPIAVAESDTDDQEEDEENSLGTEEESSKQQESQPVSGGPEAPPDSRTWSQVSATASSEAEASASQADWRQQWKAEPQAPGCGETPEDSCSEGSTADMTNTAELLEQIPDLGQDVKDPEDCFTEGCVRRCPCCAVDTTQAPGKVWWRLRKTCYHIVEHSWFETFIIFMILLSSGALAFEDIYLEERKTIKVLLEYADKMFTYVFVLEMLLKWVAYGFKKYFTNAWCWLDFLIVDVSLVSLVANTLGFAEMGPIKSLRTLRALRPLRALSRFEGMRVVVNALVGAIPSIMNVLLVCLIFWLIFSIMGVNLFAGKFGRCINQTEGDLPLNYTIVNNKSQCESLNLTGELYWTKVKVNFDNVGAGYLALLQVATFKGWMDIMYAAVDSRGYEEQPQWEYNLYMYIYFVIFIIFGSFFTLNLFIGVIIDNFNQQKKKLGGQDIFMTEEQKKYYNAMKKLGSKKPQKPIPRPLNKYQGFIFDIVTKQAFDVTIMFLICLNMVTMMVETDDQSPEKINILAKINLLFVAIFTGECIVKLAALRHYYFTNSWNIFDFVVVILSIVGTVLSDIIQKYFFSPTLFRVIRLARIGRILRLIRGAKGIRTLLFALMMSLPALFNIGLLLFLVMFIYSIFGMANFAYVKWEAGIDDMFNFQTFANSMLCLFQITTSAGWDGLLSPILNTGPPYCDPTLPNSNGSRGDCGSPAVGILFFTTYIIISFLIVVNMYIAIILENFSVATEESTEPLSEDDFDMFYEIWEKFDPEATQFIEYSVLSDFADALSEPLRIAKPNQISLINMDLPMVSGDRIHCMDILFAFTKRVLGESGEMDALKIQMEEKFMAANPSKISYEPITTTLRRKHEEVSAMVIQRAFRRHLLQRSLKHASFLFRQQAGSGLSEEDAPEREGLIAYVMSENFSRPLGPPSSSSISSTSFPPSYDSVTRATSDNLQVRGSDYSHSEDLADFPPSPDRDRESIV
Protocol: Inhibition of the TTX-resistant NaV1.5 sodium channel, a key cardiac ion channel, can have profound effects on the duration and amplitude of the cardiac action potential and can result in arrhythmias and other heart malfunctions. To assess the potential cardiac liability of compounds at an early stage in the drug discovery process, a NaV1.5 sodium channel screening assay is performed on Molecular Device's PatchXpress™ automated electrophysiology platform. Under voltage-calmp conditions, NaV1.5 currents were recorded from HEK cells expressing the human Nav1.5 channel in the absence and presence of increasing concentrations of the test compound to obtain an IC50 value. The external recording solution contained (in mM): 90 TEACl, 50 NaCl, 1.8 CaCl, 1 MgCl2, 10 HEPES, 10 glucose, adjusted to pH 7.4 with TEA-OH and to 300 mOsm with sucrose (if necessary), while the internal patch pipette solution contained (in mM): 129 CsF, 2 MgCl2, 11 EGTA, 10 HEPES, 3 Na2ATP adjusted to pH 7.2 with CsOH and to 290 mOsm with sucrose (if necessary). NaV1.5 channel currents were evoked using a cardiac action potential waveform at 1 Hz, digitized at 31.25 kHz and low-pass filtered at 12 kHz.

[4] = Rat Early Pharmacokinetic (EPK) study; format: in vivo; settings: PO, 3 mg/kg, formulation PG (propylene glycol); for Tmax: male, Sprague-Dawley, blood
Protocol: Male Sprague-Dawley rats were dosed via oral (PO) gavage in the detailed formulation. Blood samples were collected from the animals at 6 timepoints out to 4 hours post-dose. Pharmacokinetic analysis was performed on the LC-MS/MS measured concentrations for each timepoint of each compound.

[5] = tested on: Lamina I/II spinal cord neurons; assay: Lamina assay: current-clamp recordings on lamina I/II spinal cord neurons; format: cell-based, rat; settings: Lamina I and II; for % Spike Change (Mean; % change from control): tonic firing neurons, current-clamp
Text: Male Wistar rats (P6 to P9 for voltage-clamp and P15 to P18 for current-clamp recordings) were anaesthetized through intraperitoneal injection of Inactin (Sigma). The spinal cord was then rapidly dissected out and placed in an ice-cold solution protective sucrose solution containing (in mM): 50 sucrose, 92 NaCl, 15 D-Glucose, 26 NaHCO3, 5 KCl, 1.25 NaH2PO4, 0.5 CaCl2, 7 MgSO4, 1 kynurenic acid, and bubbled with 5% CO2/95% O2. The meninges, dura, and dorsal and ventral roots were then removed from the lumbar region of the spinal cord under a dissecting microscope. The “cleaned” lumbar region of the spinal cord was glued to the vibratome stage and immediately immersed in ice cold, bubbled, sucrose solution. For current-clamp recordings, 300 to 350 μm parasagittal slices were cut to preserve the dendritic arbour of lamina I neurons, while 350 to 400 μm transverse slices were prepared for voltage-clamped […] channel recordings. Slices were allowed to recover for 1 hour at 35° C. in Ringer solution containing (in mM): 125 NaCl, 20 D-Glucose, 26 NaHCO3, 3 KCl, 1.25 NaH2PO4, 2 CaCl2, 1 MgCl2, 1 kynurenic acid, 0.1 picrotoxin, bubbled with 5% CO2/95% O2. The slice recovery chamber was then returned to room temperature (20 to 22° C.) and all recordings were performed at this temperature.
Neurons were visualized using IR-DIC optics (Zeiss Axioskop 2 FS plus, Gottingen, Germany), and neurons from lamina I and the outer layer of lamina II were selected based on their location relative to the substantia gelatinosa layer. Neurons were patch-clamped using borosilicate glass patch pipettes with resistances of 3 to 6 MΩ. Current-clamp recordings of lamina I/II neurons in the intact slice, the external recording solution was the above Ringer solution, while the internal patch pipette solution contained (in mM): 140 KGluconate, 4 NaCl, 10 HEPES, 1 EGTA, 0.5 MgCl2, 4 MgATP, 0.5 Na2GTP, adjusted to pH 7.2 with 5 M KOH and to 290 mOsm with D-Mannitol (if necessary). Only tonic firing neurons were selected for current-clamp experiments, while phasic, delayed onset and single spike neurons were discarded (22). Recordings were digitized at 50 kHz and low-pass filtered at 2.4 kHz.

O=C(CN1CCNCC1=O)Nc1cc(C(F)(F)F)cc(C(F)(F)F)c1 [Compound 1, N-(3,5-bis(trifluoromethyl)phenyl)-2-(2-oxopiperazin-1-yl)acetamide]
Epilepsy 6 Hz (% protected) ([1]; 0.25 hr): 75%
Epilepsy 6 Hz (% protected) ([1]; 0.5 hr): 100%
Epilepsy 6 Hz (% protected) ([1]; 1 hr): 75%
ED50 [1]: 128 mg/kg
% Impaired ([2]; 0.25 hr): 0%
% Impaired ([2]; 0.5 hr): 0%
% Impaired ([2]; 1 hr): 0%
% Impaired ([2]; 2 hr): 0%
% Impaired ([2]; 4 hr): 0%
IC50 [3]: 100 µM
Dose Normalized AUC [4]: 1,118 nM*h
Dose Normalized Cmax [4]: 438 nM
Tmax [4]: 15 min
% Spike Change (Mean; % change from control) [5]: −47.3%
EC50 ([5]; Rattus norvegicus, Neuron): 0.482 µM

O=C1CN(CC(=O)Nc2cc(C(F)(F)F)cc(C(F)(F)F)c2)CCN1 [Compound 9, N-(3,5-bis(trifluoromethyl)phenyl)-2-(3-oxopiperazin-1-yl)acetamide]
Epilepsy 6 Hz (% protected) ([1]; 0.25 hr): 75%
Epilepsy 6 Hz (% protected) ([1]; 0.5 hr): 25%
Epilepsy 6 Hz (% protected) ([1]; 1 hr): 88%
Epilepsy 6 Hz (% protected) ([1]; 2 hr): 75%
Epilepsy 6 Hz (% protected) ([1]; 4 hr): 0%
ED50 [1]: 90 mg/kg
% Impaired ([2]; 0.25 hr): 0%
% Impaired ([2]; 0.5 hr): 0%
% Impaired ([2]; 1 hr): 0%
% Impaired ([2]; 2 hr): 0%
% Impaired ([2]; 4 hr): 0%
IC50 [3]: 80 µM
Dose Normalized AUC [4]: 1,120 nM*h
Dose Normalized Cmax [4]: 484 nM
Tmax [4]: 84 min
% Spike Change (Mean; % change from control) [5]: −35.5%
